Assay results reported in patent EP0501870A1, “New pharmaceutical compositions, particularly for the treatment of functional infections of the large intestines, and process for obtaining them” (SOCIETE CIVILE BIOPROJET, priority 1991, dated 1992).

Legend:
[1] = tested on: motricité colique; test: Post-prandial colonic motor activity recorded by strain gauges; type: in vivo, chien; details: dog, mean and sd of 8 values
Excerpt: Chez le chien, en période post-prandiale, le mélange des deux isomères [R] 65 % [S]

[2] = target: T1, enképhalinase plasmatique (Homo sapiens, UniProt P08473); test: Plasma enkephalinase activity over time after a single oral dose; type: in vivo, volontaire sain; details: healthy volunteer; for Activité enképhalinase plasmatique T3O' / Activité enképhalinase plasmatique T1h / Activité enképhalinase plasmatique T8h / Activité enképhalinase plasmatique TO: 30 mg oral single dose; for Activité enképhalinase plasmatique T3O': 30 min; for Activité enképhalinase plasmatique T3O' / Activité enképhalinase plasmatique T1h / Activité enképhalinase plasmatique T8h: * p < 0.05 vs TO; for Activité enképhalinase plasmatique T1h: 1 h; for Activité enképhalinase plasmatique T8h: 8 h; for Activité enképhalinase plasmatique TO: time zero (baseline)
T1 construct: from tissue; host or cells: plasma of healthy volunteers
T1 sequence (P08473 whole entry): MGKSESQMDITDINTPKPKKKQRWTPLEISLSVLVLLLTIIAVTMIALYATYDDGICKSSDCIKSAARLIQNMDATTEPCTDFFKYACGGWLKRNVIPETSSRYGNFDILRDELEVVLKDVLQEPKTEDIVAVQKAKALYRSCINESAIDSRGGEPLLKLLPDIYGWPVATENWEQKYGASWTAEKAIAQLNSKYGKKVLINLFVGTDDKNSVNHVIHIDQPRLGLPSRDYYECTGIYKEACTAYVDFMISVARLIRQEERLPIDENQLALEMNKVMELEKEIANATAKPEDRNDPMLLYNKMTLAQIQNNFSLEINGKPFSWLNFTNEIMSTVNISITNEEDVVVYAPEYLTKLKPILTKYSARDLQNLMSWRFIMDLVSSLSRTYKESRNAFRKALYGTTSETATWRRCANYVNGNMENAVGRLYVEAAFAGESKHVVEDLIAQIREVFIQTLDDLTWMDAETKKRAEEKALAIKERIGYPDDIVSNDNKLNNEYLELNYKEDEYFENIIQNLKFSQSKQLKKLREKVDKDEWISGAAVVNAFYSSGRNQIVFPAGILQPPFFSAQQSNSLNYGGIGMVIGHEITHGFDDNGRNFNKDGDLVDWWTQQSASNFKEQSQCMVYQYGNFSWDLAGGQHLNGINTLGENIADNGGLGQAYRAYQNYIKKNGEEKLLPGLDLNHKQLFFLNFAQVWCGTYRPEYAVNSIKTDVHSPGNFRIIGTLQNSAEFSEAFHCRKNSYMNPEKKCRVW
Experimental: Chez le volontaire sain, l'activité enzymatique plasmatique a été évaluée en fonction du temps pour suivre l'absorption et la durée de vie des inhibiteurs étudiés, après administration orale d'un dose unique de 30 mg.
Comparaison des inhibitions enképhalinasiques plasmatiques après administration des différents composés à la dose de 30 mg par voie orale.

[3] = target: enképhalinase; details: type of constant (IC50/Ki) not given; read-out: activité inhibitrice de l'enképhalinase; cited from earlier work
Sequence of enképhalinase (P08473 whole entry, species assumed): as the sequence (P08473 whole entry) above

[4] = target: A.C.E. (Homo sapiens, UniProt P12821); details: cited from earlier work
Sequence of A.C.E. (P12821 30-1306, species assumed): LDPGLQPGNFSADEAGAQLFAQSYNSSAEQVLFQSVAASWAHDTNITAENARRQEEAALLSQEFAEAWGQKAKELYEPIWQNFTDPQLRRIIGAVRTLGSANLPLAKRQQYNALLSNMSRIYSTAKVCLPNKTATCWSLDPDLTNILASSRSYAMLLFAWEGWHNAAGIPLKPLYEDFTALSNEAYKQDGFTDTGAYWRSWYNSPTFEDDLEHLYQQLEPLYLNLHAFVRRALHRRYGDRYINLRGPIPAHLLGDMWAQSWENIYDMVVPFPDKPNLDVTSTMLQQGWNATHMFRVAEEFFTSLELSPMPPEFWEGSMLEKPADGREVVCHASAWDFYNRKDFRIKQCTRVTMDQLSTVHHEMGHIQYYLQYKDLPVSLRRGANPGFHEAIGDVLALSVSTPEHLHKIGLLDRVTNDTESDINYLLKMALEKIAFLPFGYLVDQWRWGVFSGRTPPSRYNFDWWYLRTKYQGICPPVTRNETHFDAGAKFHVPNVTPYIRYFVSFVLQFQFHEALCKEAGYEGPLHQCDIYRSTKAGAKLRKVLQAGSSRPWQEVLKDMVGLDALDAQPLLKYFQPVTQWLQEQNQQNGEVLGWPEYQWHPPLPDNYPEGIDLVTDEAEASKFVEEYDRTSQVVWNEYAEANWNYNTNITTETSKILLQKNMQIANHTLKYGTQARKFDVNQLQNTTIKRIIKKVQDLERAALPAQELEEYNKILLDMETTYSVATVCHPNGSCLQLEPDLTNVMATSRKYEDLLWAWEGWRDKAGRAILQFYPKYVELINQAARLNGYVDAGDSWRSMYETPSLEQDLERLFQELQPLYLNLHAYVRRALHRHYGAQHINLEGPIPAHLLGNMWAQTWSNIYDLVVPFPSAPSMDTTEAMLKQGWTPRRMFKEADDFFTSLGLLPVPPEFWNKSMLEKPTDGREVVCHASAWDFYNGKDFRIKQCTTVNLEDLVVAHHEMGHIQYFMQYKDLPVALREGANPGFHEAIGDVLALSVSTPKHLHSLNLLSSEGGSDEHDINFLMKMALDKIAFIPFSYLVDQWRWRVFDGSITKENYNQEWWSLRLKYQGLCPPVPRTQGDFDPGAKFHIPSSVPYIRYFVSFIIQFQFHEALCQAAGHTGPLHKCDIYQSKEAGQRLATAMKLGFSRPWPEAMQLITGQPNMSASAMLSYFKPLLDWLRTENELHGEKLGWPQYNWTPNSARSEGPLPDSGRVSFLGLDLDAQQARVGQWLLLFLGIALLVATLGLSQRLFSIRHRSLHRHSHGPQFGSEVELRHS

[5] = clinical trials in man; cited from earlier work
[6] = Multicentre clinical study in functional colopathy patients; type: in vivo
Excerpt: Une étude multicentrique chez 420 colopathes fonctionnels a été entreprise avec l'acétorphan [R,S], produit pour lequel les études de toxicité chronique chez l'animal rongeur (rat) et non rongeur (singe) autorisaient des études de longue durée (supérieure à 1 mois). […]
Le critère principal d'efficacité retenu était la douleur évaluée selon une échelle analogique. Les autres paramètres pris en considération étaient les troubles du transit, qu'il s'agisse de constipation (54,4 % des cas) ou de diarrhée (39 % des cas).

[7] = target: enképhalinase (Homo sapiens, UniProt P08473); details: compared with isomère [S], cited from earlier work
Sequence of enképhalinase (Homo sapiens, UniProt P08473) (P08473 whole entry, species assumed): as the sequence (P08473 whole entry) above

[8] = plasma enkephalinase inhibition, 30 mg oral

CC(=O)SC[C@@H](Cc1ccccc1)C(=O)NCC(=O)OCc1ccccc1 [[S], [S] acétorphan]
Index moteur (évalué par jauge de contrainte) Avant repas (-2-0 h) ([1]; 5 mg/kg per os): 6.3 ± 1 | Activité enképhalinase plasmatique T3O' [2]: 28,4* pmol/ml/min | Activité enképhalinase plasmatique T1h [2]: 21,7* pmol/ml/min | Activité enképhalinase plasmatique T8h [2]: 37* pmol/ml/min | Activité enképhalinase plasmatique TO [2]: 53,3 pmol/ml/min | IC50 [3]: 2.2 nM | activité inhibitrice de l'A.C.E. [4]: résidant essentiellement dans l'isomère [S] | effet antihypertenseur [5]: effet antihypertenseur, démontré chez l'homme

CC(=O)SCC(Cc1ccccc1)C(=O)NCC(=O)OCc1ccccc1 (racemic) [acétorphan]
% d'amélioration après acétorphan 100 mg X 3, Ballonnement ([6]; 1 mois (420 sujets)): 60% | % d'amélioration après acétorphan 100 mg X 3, Douleur ([6]; 1 mois (420 sujets)): 70% | % d'amélioration après acétorphan 100 mg X 3, Troubles du transit ([6]; 1 mois (420 sujets)): 50% | % d'amélioration après acétorphan 100 mg X 3, Ballonnement ([6]; 2 mois (115 sujets)): 80% | % d'amélioration après acétorphan 100 mg X 3, Douleur ([6]; 2 mois (115 sujets)): 84,3% | % d'amélioration après acétorphan 100 mg X 3, Troubles du transit ([6]; 2 mois (115 sujets)): 81,5% | % d'amélioration après acétorphan 100 mg X 3, Ballonnement ([6]; 3 mois (40 sujets)): 90% | % d'amélioration après acétorphan 100 mg X 3, Douleur ([6]; 3 mois (40 sujets)): 87,5% | % d'amélioration après acétorphan 100 mg X 3, Troubles du transit ([6]; 3 mois (40 sujets)): 94% | sujets constipés au stade 3 ([6]; after one month of treatment): 0,9% | sujets diarrhéiques présentant une diarrhée objective et importante (d'intensité 2 et 3) ([6]; after one month of treatment, 20 % before treatment): 2,4% | sujets constipés souffrant de constipation importante (stades 2 et 3) ([6]; after one month of treatment, 32 % before treatment): 12,7%

CC(=O)SC[C@H](Cc1ccccc1)C(=O)NCC(=O)OCc1ccccc1 [[R], [R] acétorphan]
Index moteur (évalué par jauge de contrainte) Avant repas (-2-0 h) ([1]; 10 mg/kg per os): 5.7 ± 0.8 | Index moteur (évalué par jauge de contrainte) Après repas (2 - 10 h) ([1]; 10 mg/kg per os, * p < 0.01 vs control): 15.2 ± 2.4 | Activité enképhalinase plasmatique T3O' [2]: 40,0 pmol/ml/min | Activité enképhalinase plasmatique T1h [2]: 32,4* pmol/ml/min | Activité enképhalinase plasmatique T8h [2]: 46,1 pmol/ml/min | Activité enképhalinase plasmatique TO [2]: 52,3 pmol/ml/min | durée d'action [2, 8]: plus courte que le dérivé [S] et le mélange [R] + [S] | effet maximum [Cmax] [2, 8]: plus faible | IC50 [3]: 1.7 nM | activité inhibitrice de l'A.C.E. [4]: dénué d'effet sur l'A.C.E. | durée d'action vis-à-vis de l'enképhalinase [7]: environ trois fois moins longue que celle de l'isomère [S] | effet maximal ([7]; enkephalinase inhibition): moins intense
